Test results: patent US9309242B2, “Substituted pyrido[2,3-b]pyrazines as FGFR kinase inhibitors” (priority 2011, dated 2016)
Counter-ions that a name gives are not always drawn.

Key:
KDR (h) = KDR (h) (Homo sapiens, UniProt P35968); assay: KDR (VEGFR2) (enzymatic assay), TR-FRET; assay type: biochemical; conditions: average values if tested multiple times, read-out: VEGFR 2 (KDR) pIC50 (converted)
How it was run: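 3 μM ATP, 500 nM Btn-Flt3 substrate, 150 ng/ml kinase; HEPES pH 7.5 with MnCl2, DTT, vanadate, Triton; 1% DMSO. 120 min RT. Stop: EDTA + Eu-anti-P-Tyr + SA-XL-665, 60 min RT. Readout TR-FRET ex340/em620, 655 nm, RFU.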

FGFR3 (h) = FGFR3 (h) (Homo sapiens, UniProt P22607); assay: FGFR3 (enzymatic assay), TR-FRET; assay type: biochemical; conditions: average values if tested multiple times, read-out: FGFR 3 pIC50 (converted)
Chain of FGFR3 (h) (P22607 23-806): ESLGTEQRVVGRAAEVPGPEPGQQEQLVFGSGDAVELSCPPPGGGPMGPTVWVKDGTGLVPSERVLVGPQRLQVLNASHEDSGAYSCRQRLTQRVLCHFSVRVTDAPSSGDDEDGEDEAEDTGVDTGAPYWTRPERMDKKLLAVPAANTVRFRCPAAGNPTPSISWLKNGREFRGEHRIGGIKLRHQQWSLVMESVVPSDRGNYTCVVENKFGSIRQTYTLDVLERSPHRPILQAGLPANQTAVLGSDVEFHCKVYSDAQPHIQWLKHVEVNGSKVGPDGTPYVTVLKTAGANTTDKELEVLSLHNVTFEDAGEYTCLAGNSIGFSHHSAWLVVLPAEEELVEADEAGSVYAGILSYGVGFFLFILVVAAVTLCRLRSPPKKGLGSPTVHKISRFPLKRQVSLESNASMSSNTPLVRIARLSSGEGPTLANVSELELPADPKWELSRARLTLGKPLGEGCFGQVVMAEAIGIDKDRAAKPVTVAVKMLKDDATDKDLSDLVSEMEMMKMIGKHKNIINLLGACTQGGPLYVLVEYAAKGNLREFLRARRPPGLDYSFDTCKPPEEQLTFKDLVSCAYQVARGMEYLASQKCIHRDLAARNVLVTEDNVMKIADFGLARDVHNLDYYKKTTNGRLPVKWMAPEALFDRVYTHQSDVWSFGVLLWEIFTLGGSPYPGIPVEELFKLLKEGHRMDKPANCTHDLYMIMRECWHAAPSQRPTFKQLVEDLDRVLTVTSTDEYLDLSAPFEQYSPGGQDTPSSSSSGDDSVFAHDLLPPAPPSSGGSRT
Excerpt: Time-Resolved Fluorescence Resonance Energy Transfer (TR-FRET) signal (ex340 nm.

[1] = molecular target: Ba/F3-FGFR4-transfected cells (Homo sapiens, UniProt P22455); assay: Ba/F3-FGFR4 cellular proliferation assay, Alamar Blue; assay type: cell-based
Chain of Ba/F3-FGFR4-transfected cells (P22455 whole entry, change not shown): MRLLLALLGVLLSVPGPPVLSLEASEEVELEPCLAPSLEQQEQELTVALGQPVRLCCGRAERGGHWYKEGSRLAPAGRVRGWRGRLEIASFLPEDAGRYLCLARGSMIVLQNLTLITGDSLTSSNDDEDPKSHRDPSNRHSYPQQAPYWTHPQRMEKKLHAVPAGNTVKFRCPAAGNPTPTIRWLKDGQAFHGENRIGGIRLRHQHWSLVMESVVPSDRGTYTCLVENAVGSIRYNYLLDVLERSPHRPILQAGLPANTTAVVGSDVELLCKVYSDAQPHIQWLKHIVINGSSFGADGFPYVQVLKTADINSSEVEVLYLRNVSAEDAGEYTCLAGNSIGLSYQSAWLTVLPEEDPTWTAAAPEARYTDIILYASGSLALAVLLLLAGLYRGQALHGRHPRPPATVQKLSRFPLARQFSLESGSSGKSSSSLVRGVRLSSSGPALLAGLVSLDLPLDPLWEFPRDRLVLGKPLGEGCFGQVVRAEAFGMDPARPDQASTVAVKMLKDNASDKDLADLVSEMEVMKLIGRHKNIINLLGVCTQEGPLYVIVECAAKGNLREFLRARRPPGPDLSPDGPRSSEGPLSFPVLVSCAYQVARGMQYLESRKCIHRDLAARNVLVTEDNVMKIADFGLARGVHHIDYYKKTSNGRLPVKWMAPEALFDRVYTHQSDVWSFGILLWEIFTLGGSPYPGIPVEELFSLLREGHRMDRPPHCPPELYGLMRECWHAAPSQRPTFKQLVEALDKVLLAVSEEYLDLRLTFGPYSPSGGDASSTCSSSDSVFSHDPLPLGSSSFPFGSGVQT
How it was run: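 Fluorescence read-out (ex. 540 nm, em. 590 nm) of resazurin-based Alamar Blue after 4 h, following 24 h compound exposure of Ba/F3-FGFR4-transfected cells (20000/well) at 37° C, 5% CO2.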

Chain of KDR (h) (P35968 20-1356): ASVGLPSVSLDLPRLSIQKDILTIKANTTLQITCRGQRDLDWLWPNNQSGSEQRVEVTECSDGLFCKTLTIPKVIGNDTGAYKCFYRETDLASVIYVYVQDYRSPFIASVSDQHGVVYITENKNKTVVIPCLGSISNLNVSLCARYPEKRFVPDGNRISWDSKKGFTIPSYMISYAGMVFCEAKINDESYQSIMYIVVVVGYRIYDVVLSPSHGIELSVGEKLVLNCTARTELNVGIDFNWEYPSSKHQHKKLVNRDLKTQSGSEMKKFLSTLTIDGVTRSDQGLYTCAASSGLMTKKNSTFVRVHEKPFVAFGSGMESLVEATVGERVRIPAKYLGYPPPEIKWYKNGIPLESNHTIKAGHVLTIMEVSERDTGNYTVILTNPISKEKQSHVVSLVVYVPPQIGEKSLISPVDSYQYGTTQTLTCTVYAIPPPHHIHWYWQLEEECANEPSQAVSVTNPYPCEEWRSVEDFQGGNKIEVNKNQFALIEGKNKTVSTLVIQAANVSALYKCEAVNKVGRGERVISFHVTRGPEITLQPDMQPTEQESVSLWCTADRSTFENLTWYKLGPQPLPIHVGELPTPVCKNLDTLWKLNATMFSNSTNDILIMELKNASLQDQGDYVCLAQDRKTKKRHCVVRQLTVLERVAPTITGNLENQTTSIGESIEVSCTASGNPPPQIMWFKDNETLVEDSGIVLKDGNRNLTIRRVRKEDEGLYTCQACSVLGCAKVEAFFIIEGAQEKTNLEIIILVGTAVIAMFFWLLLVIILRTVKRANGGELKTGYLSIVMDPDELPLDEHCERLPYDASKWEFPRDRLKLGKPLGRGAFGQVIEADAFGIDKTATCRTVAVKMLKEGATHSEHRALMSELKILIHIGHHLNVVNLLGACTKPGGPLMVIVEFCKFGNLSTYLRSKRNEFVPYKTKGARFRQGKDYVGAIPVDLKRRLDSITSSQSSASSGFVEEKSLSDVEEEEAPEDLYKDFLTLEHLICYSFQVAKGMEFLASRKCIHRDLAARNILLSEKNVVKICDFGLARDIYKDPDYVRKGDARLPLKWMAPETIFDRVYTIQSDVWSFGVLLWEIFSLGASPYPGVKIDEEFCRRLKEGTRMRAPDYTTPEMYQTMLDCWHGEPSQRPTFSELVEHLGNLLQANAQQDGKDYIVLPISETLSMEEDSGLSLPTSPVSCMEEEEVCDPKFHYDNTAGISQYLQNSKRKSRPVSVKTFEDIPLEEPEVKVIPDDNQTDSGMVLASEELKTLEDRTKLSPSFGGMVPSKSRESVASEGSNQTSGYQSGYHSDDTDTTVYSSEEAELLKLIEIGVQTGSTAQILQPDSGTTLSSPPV

SMILES | IC50 (KDR (h)) [nM] | IC50 (FGFR3 (h)) [nM] | BAF3-FGFR4 pIC50 [1]
COc1cc(OC)cc(N(Cc2ncc[nH]2)c2ccc3ncc(-c4cnn(C)c4)nc3n2)c1 (racemic) [24-DL-tartrate salt] | 11.7 | 0.741 | 7.62
COc1cc(OC)c(F)c(N(CC(O)COC(C)C)c2ccc3ncc(-c4cnn(C)c4)nc3n2)c1 (single isomer, unassigned) [Compound 75] | 23.4 | 1.95 | 7.33
COc1cc(OC)c(Cl)c(N(CC2CCC(=O)N2)c2ccc3ncc(-c4cnn(C)c4)nc3n2)c1Cl (single isomer, unassigned) [Compound 88] | 102 | 6.76 | 5.65
COc1cc(/N=c2\ccc3ncc(-c4cnn(C)c4)nc3n2CC2COC(=O)N2)c(F)c(OC)c1 (single isomer, unassigned) [Compound 112] | 17 | 0.776 | 6.67
COc1cc(OC)c(F)c(N(Cc2ncc[nH]2)c2ccc3ncc(-c4cnn(C)c4)nc3n2)c1 [Compound 23] | 7.08 | 1.07 | 8.02
COc1cc(OC)cc(N(Cc2ncc[nH]2)c2ccc3ncc(-c4cnn(C)c4)nc3n2)c1 [Compound 24] | 10.7 | 0.603 | 7.77
COc1cc(OC)c(F)c(N(CCO)c2ccc3ncc(-c4cnn(C)c4)nc3n2)c1 [Compound 40] | 17.4 | 0.646 | 7.04
COc1cc(OC)c(F)c(N(Cc2c[nH]cn2)c2ccc3ncc(-c4cnn(C)c4)nc3n2)c1 [Compound 41] | 5.37 | 0.589 | 7.47
COc1cc(OC)c(Cl)c(N(Cc2ncc[nH]2)c2ccc3ncc(-c4cnn(C)c4)nc3n2)c1 [Compound 42] | 8.91 | 2.14 | 7.35
COc1cc(OC)c(F)c(N(CC2CCC(=O)N2)c2ccc3ncc(-c4cnn(C)c4)nc3n2)c1 (stereo not drawn) [Compound 46] | 41.7 | 1.51 | 6.76
COc1cc(OC)c(F)c(N(CCCN2CCCC2=O)c2ccc3ncc(-c4cnn(C)c4)nc3n2)c1F [Compound 56] | 7.76 | 2.75 | 7.41
COc1cc(OC)c(F)c(N(CC(O)COC(C)C)c2ccc3ncc(-c4cnn(C)c4)nc3n2)c1F (stereo not drawn) [Compound 63] | 15.8 | 6.31 | 7.49
COc1cc(OC)c(F)c(/N=c2\ccc3ncc(-c4cnn(C)c4)nc3n2CC(O)COC(C)C)c1F (stereo not drawn) [Compound 64] | 7.41 | 0.832 | 7.52
COc1ccc(Cl)c(N(Cc2ncc[nH]2)c2ccc3ncc(-c4cnn(C)c4)nc3n2)c1Cl [Compound 65] | 191 | 34.7 | 5.21
COc1cc(OC)c(F)c(N(CCN)c2ccc3ncc(-c4cnn(C)c4)nc3n2)c1F [Compound 67] | 14.5 | 1.2 | 7.37
COc1cc(OC)c(F)c(/N=c2\ccc3ncc(-c4cnn(C)c4)nc3n2CCN)c1F [Compound 68] | 15.8 | 1.62 | 7.14
CNCCN(c1ccc2ncc(-c3cnn(C)c3)nc2n1)c1c(F)ccc(OC)c1Cl [Compound 69] | 417 | 6.46 | 6.11
COc1ccc(F)c(N(Cc2ncc[nH]2)c2ccc3ncc(-c4cnn(C)c4)nc3n2)c1Cl [Compound 73] | 63.1 | 2.82 | 6.50
CNCCN(c1ccc2ncc(-c3cnn(C)c3)nc2n1)c1c(Cl)c(OC)cc(OC)c1Cl [Compound 81] | 195 | 8.13 | 5.76
CNCCN(c1ccc2ncc(-c3cnn(C)c3)nc2n1)c1c(Cl)ccc(OC)c1Cl [Compound 83] | > 1000 | 105 | <5
